“Also recorded” adds a separate entry of the source.
Tested on: Japanese patients with R/R iNHL
Assay: Phase 1 dose-escalation study: safety and tolerability (TEAEs, DLTs)
Assay type: in vivo
From the text: Japanese patients aged ≥ 20 years with R/R iNHL histologically confirmed as FL, nodal MZL, extra-nodal MZL of mucosa-associated lymphoid tissue, small lymphocytic lymphoma, lymphoplasmacytic lymphoma, Waldenström’s macroglobulinemia, or equivalent, according to World Health Organization classification, were eligible for this study. Other key eligibility criteria included being PI3K inhibitor therapy-naïve and an Eastern Cooperative Oncology Group performance status of 0 or 1. Further details of inclusion and exclusion criteria are provided in Supplementary Table 1.
This was a multicenter, open-label, dose-escalation, phase 1 study in Japan. All patients received oral zandelisib once daily at the same time each day, at least 1 h before or 2 h after a meal (CS: continuous schedule). Each treatment cycle was 28 days. Definitions of the DLTs described in this study can be found in Supplementary Table 2. The observation period for DLTs was from day 1 of Cycle 1 to day 1 of Cycle 2. Zandelisib was administered until disease progression or unacceptable toxicity. In the event of an AE, patients could be switched to IDT. In the case of disease progression while receiving IDT, patients could be switched back to CS per the investigator’s discretion.
A starting dose of 45 mg was set for investigating patient safety. This study adopted a standard 3 + 3 design. […] If DLTs occurred in 2 or more patients, the study was planned to be suspended pending a safety evaluation. If a DLT occurred in 1 patient, 3 further patients were added to cohort 1. If DLTs occurred in 0/3 or 1/6 patients in cohort 1, dosing in cohort 2 commenced (n = 6; 60 mg/day). If the incidence of DLTs in cohort 2 was ≤ 1/6, the maximum tolerated dose was not determined, and the dose in cohort 2 was to be selected as the recommended Japanese phase 2 dose.
The primary endpoint was the safety [number of patients with treatment-emergent adverse events (TEAEs), based on Common Terminology Criteria for Adverse Events version 5.0] and tolerability (including laboratory values, vital signs, and electrocardiogram performance) of zandelisib in Japanese patients. Hepatobiliary disorder, aspartate/alanine (AST/ALT) increased, diarrhea/colitis, organizing pneumonia, stomatitis, or rash were defined as irAEs in this manuscript. Secondary endpoints included PK (plasma concentrations and PK parameters) and the efficacy of zandelisib. […] The PK parameters for Cycle 1 day 1 and Cycle 2 day 1 were calculated for each patient by non-compartmental analysis. PK parameters included maximum plasma drug concentration (Cmax), area under the plasma concentration–time curve (AUC) from time zero to the last measurable point (AUC0–t), the AUC from time zero to infinity (AUC0-inf), and terminal half-life (t1/2).

For `CN1CCC(c2ccccc2CC(C)(C)Nc2nc(N3CCOCC3)nc(-n3c(C(F)F)nc4ccccc43)n2)CC1` [zandelisib], the “TEAE Infections and infestations (SOC), All grades” value (60 mg, n = 6) was 4 (66.7) n (%), the “TEAE Infections and infestations (SOC), Grade ≥ 3” value (60 mg, n = 6) was 0 n (%) and the “TEAE Infusion site extravasation, All grades” value (60 mg, n = 6) was 0 n (%). The “TEAE Infusion site extravasation, Grade ≥ 3” value (60 mg, n = 6) was 0 n (%), the “TEAE Insomnia, All grades” value (60 mg, n = 6) was 0 n (%) and the “TEAE Insomnia, Grade ≥ 3” value (60 mg, n = 6) was 0 n (%). For the same molecule, the “TEAE Investigations (SOC), All grades” value (60 mg, n = 6) was 6 (100.0) n (%), the “TEAE Investigations (SOC), Grade ≥ 3” value (60 mg, n = 6) was 4 (66.7) n (%) and the “TEAE Joint effusion, All grades” value (60 mg, n = 6) was 0 n (%). The “TEAE Joint effusion, Grade ≥ 3” value (60 mg, n = 6) was 0 n (%), the “TEAE Lymphocyte count decreased, All grades” value (60 mg, n = 6) was 1 (16.7) n (%) and the “TEAE Lymphocyte count decreased, Grade ≥ 3” value (60 mg, n = 6) was 0 n (%). For the same molecule, the “TEAE Metabolism and nutrition disorders (SOC), All grades” value (60 mg, n = 6) was 0 n (%), the “TEAE Metabolism and nutrition disorders (SOC), Grade ≥ 3” value (60 mg, n = 6) was 0 n (%) and the “TEAE Muscle spasms, All grades” value (60 mg, n = 6) was 0 n (%). The “TEAE Muscle spasms, Grade ≥ 3” value (60 mg, n = 6) was 0 n (%), the “TEAE Musculoskeletal and connective tissue disorders (SOC), All grades” value (60 mg, n = 6) was 2 (33.3) n (%) and the “TEAE Musculoskeletal and connective tissue disorders (SOC), Grade ≥ 3” value (60 mg, n = 6) was 0 n (%). For the same molecule, the “TEAE Nasopharyngitis, All grades” value (60 mg, n = 6) was 3 (50.0) n (%), the “TEAE Nasopharyngitis, Grade ≥ 3” value (60 mg, n = 6) was 0 n (%) and the “TEAE Nausea, All grades” value (60 mg, n = 6) was 2 (33.3) n (%). The “TEAE Nausea, Grade ≥ 3” value (60 mg, n = 6) was 0 n (%), the “TEAE Nervous system disorders (SOC), All grades” value (60 mg, n = 6) was 0 n (%) and the “TEAE Nervous system disorders (SOC), Grade ≥ 3” value (60 mg, n = 6) was 0 n (%). For the same molecule, the “TEAE Neutrophil count decreased, All grades” value (60 mg, n = 6) was 6 (100.0) n (%), the “TEAE Neutrophil count decreased, Grade ≥ 3” value (60 mg, n = 6) was 4 (66.7) n (%) and the “TEAE Oral herpes, All grades” value (60 mg, n = 6) was 0 n (%). The “TEAE Oral herpes, Grade ≥ 3” value (60 mg, n = 6) was 0 n (%), the “TEAE Organizing pneumonia, All grades” value (60 mg, n = 6) was 0 n (%) and the “TEAE Organizing pneumonia, Grade ≥ 3” value (60 mg, n = 6) was 0 n (%). For the same molecule, the “TEAE Oropharyngeal pain, All grades” value (60 mg, n = 6) was 2 (33.3) n (%), the “TEAE Oropharyngeal pain, Grade ≥ 3” value (60 mg, n = 6) was 0 n (%) and the “TEAE Pancreatitis, All grades” value (60 mg, n = 6) was 0 n (%). For the same molecule, the “TEAE Pancreatitis, Grade ≥ 3” value (60 mg, n = 6) was 0 n (%), the “TEAE Pharyngeal paresthesia, All grades” value (60 mg, n = 6) was 1 (16.7) n (%) and the “TEAE Pharyngeal paresthesia, Grade ≥ 3” value (60 mg, n = 6) was 0 n (%). The “TEAE Pruritus, All grades” value (60 mg, n = 6) was 1 (16.7) n (%), the “TEAE Pruritus, Grade ≥ 3” value (60 mg, n = 6) was 0 n (%) and the “TEAE Psychiatric disorders (SOC), All grades” value (60 mg, n = 6) was 0 n (%). For the same molecule, the “TEAE Psychiatric disorders (SOC), Grade ≥ 3” value (60 mg, n = 6) was 0 n (%), the “TEAE Rash maculopapular, All grades” value (60 mg, n = 6) was 4 (66.7) n (%) and the “TEAE Rash maculopapular, Grade ≥ 3” value (60 mg, n = 6) was 1 (16.7) n (%). For the same molecule, the “TEAE Rash, All grades” value (60 mg, n = 6) was 3 (50.0) n (%), the “TEAE Rash, Grade ≥ 3” value (60 mg, n = 6) was 0 n (%) and the “TEAE Renal and urinary disorders (SOC), All grades” value (60 mg, n = 6) was 0 n (%). The “TEAE Renal and urinary disorders (SOC), Grade ≥ 3” value (60 mg, n = 6) was 0 n (%), the “TEAE Renal impairment, All grades” value (60 mg, n = 6) was 0 n (%) and the “TEAE Renal impairment, Grade ≥ 3” value (60 mg, n = 6) was 0 n (%). The “TEAE Respiratory, thoracic, and mediastinal disorders (SOC), All grades” value (60 mg, n = 6) was 3 (50.0) n (%), the “TEAE Respiratory, thoracic, and mediastinal disorders (SOC), Grade ≥ 3” value (60 mg, n = 6) was 0 n (%) and the “TEAE Skin and subcutaneous tissue disorders (SOC), All grades” value (60 mg, n = 6) was 6 (100.0) n (%). The “TEAE Skin and subcutaneous tissue disorders (SOC), Grade ≥ 3” value (60 mg, n = 6) was 1 (16.7) n (%), the “TEAE Stomatitis, All grades” value (60 mg, n = 6) was 1 (16.7) n (%) and the “TEAE Stomatitis, Grade ≥ 3” value (60 mg, n = 6) was 0 n (%). The “TEAE Subcutaneous abscess, All grades” value (60 mg, n = 6) was 1 (16.7) n (%), the “TEAE Subcutaneous abscess, Grade ≥ 3” value (60 mg, n = 6) was 0 n (%) and the “TEAE Tinnitus, All grades” value (60 mg, n = 6) was 0 n (%). For the same molecule, the “TEAE Tinnitus, Grade ≥ 3” value (60 mg, n = 6) was 0 n (%), the “TEAE Urticaria, All grades” value (60 mg, n = 6) was 0 n (%) and the “TEAE Urticaria, Grade ≥ 3” value (60 mg, n = 6) was 0 n (%). The “TEAE Vomiting, All grades” value (60 mg, n = 6) was 2 (33.3) n (%), the “TEAE Vomiting, Grade ≥ 3” value (60 mg, n = 6) was 0 n (%) and the “TEAE WBC count decreased, All grades” value (60 mg, n = 6) was 2 (33.3) n (%). The “TEAE WBC count decreased, Grade ≥ 3” value (60 mg, n = 6) was 0 n (%), the “maximum tolerated dose (MTD)” value (45 and 60 mg/day) was “not reached” and the “dose-limiting toxicities (DLTs)” value (45 and 60 mg/day, N = 9) was “No dose-limiting toxicities were observed; also recorded: No DLTs were reported; also recorded: no DLTs or fatal events were observed”. The “recommended phase 2 dose (RP2D)” value (Japanese patients) was 60 mg/day, the “Grade 3 irAEs” value (N = 9) was 7 patients and the “Grade ≤ 3 irAEs” value (N = 9) was “All patients experienced Grade ≤ 3 irAEs”. The “Grade ≥ 3 diarrhea” value (N = 9) was 33.3%, the “Grade ≥ 3 neutrophil count decreased” value (N = 9) was 55.6% and the “discontinued due to SAEs” value (N = 9) was 3 patients. The “dosing interrupted due to irAEs” value (N = 9) was 7 patients, the “dosing interrupted due to neutrophil count decreased” value (N = 9) was 1 patients and the “incidence of TEAEs ≥ Grade 3” value (N = 9) was 77.8%. For the same molecule, the “number of serious AEs (SAEs)” value (N = 9) was 6, the “zandelisib discontinuation due to immune-related toxicities” value (N = 9) was 4 patients and the “patients with serious AEs (SAEs)” value (N = 9, all Grade 3, treatment related) was 44.4%. The “incidence of TEAEs in all patients” value (N = 9, all grades) was 100%, the “TEAE ALT increased, All grades” value (Total, N = 9) was 3 (33.3) n (%) and the “TEAE ALT increased, Grade ≥ 3” value (Total, N = 9) was 0 n (%). The “TEAE AST increased, All grades” value (Total, N = 9) was 5 (55.6) n (%), the “TEAE AST increased, Grade ≥ 3” value (Total, N = 9) was 0 n (%) and the “TEAE Abdominal discomfort, All grades” value (Total, N = 9) was 1 (11.1) n (%). For the same molecule, the “TEAE Abdominal discomfort, Grade ≥ 3” value (Total, N = 9) was 0 n (%), the “TEAE Abdominal pain upper, All grades” value (Total, N = 9) was 1 (11.1) n (%) and the “TEAE Abdominal pain upper, Grade ≥ 3” value (Total, N = 9) was 0 n (%). For the same molecule, the “TEAE Amylase increased, All grades” value (Total, N = 9) was 1 (11.1) n (%), the “TEAE Amylase increased, Grade ≥ 3” value (Total, N = 9) was 0 n (%) and the “TEAE Anemia, All grades” value (Total, N = 9) was 1 (11.1) n (%). The “TEAE Anemia, Grade ≥ 3” value (Total, N = 9) was 0 n (%), the “TEAE Arthralgia, All grades” value (Total, N = 9) was 2 (22.2) n (%) and the “TEAE Arthralgia, Grade ≥ 3” value (Total, N = 9) was 0 n (%). For the same molecule, the “TEAE Back pain, All grades” value (Total, N = 9) was 1 (11.1) n (%), the “TEAE Back pain, Grade ≥ 3” value (Total, N = 9) was 0 n (%) and the “TEAE Blepharitis, All grades” value (Total, N = 9) was 1 (11.1) n (%). The “TEAE Blepharitis, Grade ≥ 3” value (Total, N = 9) was 0 n (%), the “TEAE Blood and lymphatic system disorders (SOC), All grades” value (Total, N = 9) was 1 (11.1) n (%) and the “TEAE Blood and lymphatic system disorders (SOC), Grade ≥ 3” value (Total, N = 9) was 0 n (%). For the same molecule, the “TEAE Blood creatinine increased, All grades” value (Total, N = 9) was 1 (11.1) n (%), the “TEAE Blood creatinine increased, Grade ≥ 3” value (Total, N = 9) was 0 n (%) and the “TEAE Bradycardia, All grades” value (Total, N = 9) was 1 (11.1) n (%). For the same molecule, the “TEAE Bradycardia, Grade ≥ 3” value (Total, N = 9) was 0 n (%), the “TEAE CMV test positive, All grades” value (Total, N = 9) was 3 (33.3) n (%) and the “TEAE CMV test positive, Grade ≥ 3” value (Total, N = 9) was 0 n (%). For the same molecule, the “TEAE Cardiac disorders (SOC), All grades” value (Total, N = 9) was 1 (11.1) n (%), the “TEAE Cardiac disorders (SOC), Grade ≥ 3” value (Total, N = 9) was 0 n (%) and the “TEAE Conjunctivitis, All grades” value (Total, N = 9) was 2 (22.2) n (%). For the same molecule, the “TEAE Conjunctivitis, Grade ≥ 3” value (Total, N = 9) was 0 n (%), the “TEAE Constipation, All grades” value (Total, N = 9) was 4 (44.4) n (%) and the “TEAE Constipation, Grade ≥ 3” value (Total, N = 9) was 0 n (%). The “TEAE Cough, All grades” value (Total, N = 9) was 1 (11.1) n (%), the “TEAE Cough, Grade ≥ 3” value (Total, N = 9) was 0 n (%) and the “TEAE Cytomegalovirus infection, All grades” value (Total, N = 9) was 1 (11.1) n (%). For the same molecule, the “TEAE Cytomegalovirus infection, Grade ≥ 3” value (Total, N = 9) was 0 n (%) and the “TEAE Cytomegalovirus viremia, All grades” value (Total, N = 9) was 1 (11.1) n (%).
